Measured values taken from PubChem BioAssay (NCI).
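Method: 48-hour compound exposure of cells in 96-well plates, five concentrations, linear interpolation of endpoints. TGI is the concentration that stops growth completely.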

Assays:
Test in all cases: NCI-60 cell line screen, 48 h
786-0 renal = system: 786-0 renal
A498 renal = system: A498 renal
A549 NSCLC = system: A549 NSCLC
ACHN renal = system: ACHN renal
BT-549 breast = system: BT-549 breast
CAKI-1 renal = system: CAKI-1 renal
CCRF-CEM leukemia = system: CCRF-CEM leukemia
COLO 205 colon = system: COLO 205 colon
DU-145 prostate = system: DU-145 prostate
EKVX NSCLC = system: EKVX NSCLC
HCC-2998 colon = system: HCC-2998 colon
HCT-116 colon = system: HCT-116 colon
HCT-15 colon = system: HCT-15 colon
HL-60(TB) leukemia = system: HL-60(TB) leukemia
HOP-62 NSCLC = system: HOP-62 NSCLC
HOP-92 NSCLC = system: HOP-92 NSCLC
HS 578T breast = system: HS 578T breast
HT29 colon = system: HT29 colon
IGROV1 ovarian = system: IGROV1 ovarian
K-562 leukemia = system: K-562 leukemia
KM12 colon = system: KM12 colon
LOX IMVI melanoma = system: LOX IMVI melanoma
MALME-3M melanoma = system: MALME-3M melanoma
MCF7 breast = system: MCF7 breast
MDA-MB-231 breast = system: MDA-MB-231 breast
MDA-MB-435 = system: MDA-MB-435
MDA-N = system: MDA-N
MOLT-4 leukemia = system: MOLT-4 leukemia
NCI-H226 lung = system: NCI-H226 lung
NCI-H23 lung = system: NCI-H23 lung
NCI-H460 lung = system: NCI-H460 lung
NCI-H522 lung = system: NCI-H522 lung
NCI/ADR-RES ovarian = system: NCI/ADR-RES ovarian
OVCAR-3 ovarian = system: OVCAR-3 ovarian
OVCAR-4 ovarian = system: OVCAR-4 ovarian
OVCAR-5 ovarian = system: OVCAR-5 ovarian
OVCAR-8 ovarian = system: OVCAR-8 ovarian
PC-3 prostate = system: PC-3 prostate
RPMI-8226 leukemia = system: RPMI-8226 leukemia
RXF 393 renal = system: RXF 393 renal
SF-268 CNS = system: SF-268 CNS
SF-295 CNS = system: SF-295 CNS
SF-539 CNS = system: SF-539 CNS
SK-MEL-28 melanoma = system: SK-MEL-28 melanoma
SK-MEL-5 melanoma = system: SK-MEL-5 melanoma
SN12C renal = system: SN12C renal
SNB-19 CNS = system: SNB-19 CNS
SR leukemia = system: SR leukemia
SW-620 colon = system: SW-620 colon
TK-10 renal = system: TK-10 renal
U251 CNS = system: U251 CNS
UACC-257 melanoma = system: UACC-257 melanoma
UO-31 renal = system: UO-31 renal

Measured: TGI

O=C(Nc1nc(C23CC4CC(CC(C4)C2)C3)cs1)c1c(O)c2ccccc2[nH]c1=O
> 100 µM: all assays above
